Patent US8680013B2, “Growth inhibition of cotton with penoxsulam” (Dow AgroSciences, LLC., priority 2011, dated 2014)
Like-named read-outs stand apart in the source and are kept apart here.

Key:
Type in all cases: in vivo
[1] = tested on: Amaranthus spp, (pigweed); assay: Field trial visual weed control, AMASS; conditions: 16DAA
Description: (§1) One field trial was conducted in field-grown cotton using standard herbicide small plot research methodology (Table 2). Plots were 2 rows wide by 20 ft long with 4 replicates per treatment. The cotton crop was grown using normal cultural practices for fertilization, seeding, watering, flooding and maintenance to ensure good growth of the crop and the weeds.
(§2) All treatments in the field trials were applied using a CO2 backpack sprayer calibrated to apply 187 L/ha spray volume. Commercially available products of penoxsulam and mepiquat chloride were mixed in water at appropriate formulated product rates to achieve the desired rates based on a unit area of application (hectare) to achieve the desired rates as shown. Treatments were sprayed as a postemergence foliar application to cotton at 10-leaf stage application timing. Treatments were rated at 16 and 41 days after the application as compared to the untreated control plants. Visual crop injury ratings were scored on a scale of 0 to 100 where 0 corresponds to no injury and 100 corresponds to complete control. Visual weed control was scored on a scale of 0 to 100 percent where 0 corresponds to no weed control and 100 corresponds to complete control.

[2] = tested on: Solanum nigrum (black nightshade); assay: Field trial visual weed control, SOLNI; conditions: 16DAA
Description: as §1, §2

[3] = tested on: cotton; assay: Postemergence plant growth regulator activity in the field (cotton); conditions: for Injury (Cotton) / Reduction (height reduction, Cotton) / Maturity (% open bolls, Cotton): 10-leaf stage
Description: Evaluation of Postemergence Plant Growth Regulator Activity in the Field
as §1, §2

[4] = tested on: cotton; conditions: for Number (Bolls): 52DAAA
Description: Evaluation of Postemergence Plant Growth Regulator Activity in the Greenhouse Treatments consisted of the compounds as listed in Table 1. Formulated amounts of penoxsulam (Dow AgroSciences Granite® SC herbicide) were placed in 3-liter bottles and dissolved in a volume of 500 mL of a water solution containing Agri-dex crop oil concentrate in a 1.25% v/v ratio. Compound requirements are based upon a 0.3 L application volume at a rate of 187 liters per hectare (L/ha). Spray solutions of the mixtures were prepared by adding the stock solutions to the appropriate amount of dilution solution to form a 500 mL spray solution with active ingredients in single and two way combinations. Formulated compounds were applied to the plant material via backpack sprayer with XR 11001 nozzles calibrated to deliver 187 L/ha at a spray height of 18 inches ([…] centimeters (cm)) above average plant canopy. The treated and control plants were placed in a greenhouse in a randomized block design on greenhouse carts and watered by […] irrigation to prevent wash-off of the test compounds from leafy tissues. Treatments were rated at 14 to 52 days after application as compared to the untreated control plants. Visual injury ratings were scored on a scale of 0 to 10 where 0 corresponds to no injury and 10 corresponds to complete control.

**Q.** With `C[N+]1(C)CCCCC1` [Mepiquat-chloride] as the compound, how does the “Control (AMASS)” value ([1]; 74 gr ai/ha) read?
**A.** The value was 95 % Visual.

**Q.** And the “Control (SOLNI)” value ([2]; 74 gr ai/ha)?
**A.** Its value is 91.3 % Visual.

**Q.** And the “Injury (Cotton)” value ([3]; 74 gr ai/ha, 16DAA)?
**A.** The value was 0 % Visual.

**Q.** What about the “Reduction (height reduction, Cotton)” value ([3]; 74 gr ai/ha, 16DAA) of the same compound?
**A.** The value was 11.3 % Visual.

**Q.** And the “Injury (Cotton)” value ([3]; 74 gr ai/ha, 41DAA)?
**A.** Its value is 5 % Visual.

**Q.** What about the “Maturity (% open bolls, Cotton)” value ([3]; 74 gr ai/ha, 41DAA) of the same compound?
**A.** The value was 53.8 % Visual.

**Q.** What about the “Reduction (height reduction, Cotton)” value ([3]; 74 gr ai/ha, 41DAA) of the same compound?
**A.** The value was 13.8 % Visual.

**Q.** What does the source list for `COc1cnc(OC)n2nc(NS(=O)(=O)c3c(OCC(F)F)cccc3C(F)(F)F)nc12` [Penoxsulam, 2-(2,2-difluoroethoxy)-N-(5,8-dimethoxy[1.2.4]triazolo[1,5-c]pyrimidine-2-yl)-6-(trifluoromethyl)benzenesulfonamide]?
**A.** Control (AMASS) ([1]; 35 gr ai/ha): 95 % Visual; Control (AMASS) ([1]; 70 gr ai/ha): 98.8 % Visual; Height ([4]; 8.8 gr ai/ha, application A (4 leaf cotton), 14DAAA): 17.6 Cm; Height ([4]; 8.8 gr ai/ha, application A (4 leaf cotton), 27DAAA): 25.5 Cm; Height ([4]; 8.8 gr ai/ha, application A (4 leaf cotton), 49DAAA): 36.6 Cm; Number (Bolls) ([4]; 8.8 gr ai/ha, application A (4 leaf cotton)): 3.2 Bolls; Height ([4]; 8.8 gr ai/ha, application B (10 leaf cotton, 21 days after A timing), 14DAAA): 28.8 Cm; Height ([4]; 8.8 gr ai/ha, application B (10 leaf cotton, 21 days after A timing), 27DAAA): 32.7 Cm; Height ([4]; 8.8 gr ai/ha, application B (10 leaf cotton, 21 days after A timing), 49DAAA): 44 Cm; Number (Bolls) ([4]; 8.8 gr ai/ha, application B (10 leaf cotton, 21 days after A timing)): 9 Bolls; Height ([4]; 17.5 gr ai/ha, application A (4 leaf cotton), 14DAAA): 15.7 Cm; Height ([4]; 17.5 gr ai/ha, application A (4 leaf cotton), 27DAAA): 21.8 Cm; Height ([4]; 17.5 gr ai/ha, application A (4 leaf cotton), 49DAAA): 33.5 Cm; Number (Bolls) ([4]; 17.5 gr ai/ha, application A (4 leaf cotton)): 2.2 Bolls; Height ([4]; 17.5 gr ai/ha, application B (10 leaf cotton, 21 days after A timing), 14DAAA): 27.2 Cm; Height ([4]; 17.5 gr ai/ha, application B (10 leaf cotton, 21 days after A timing), 27DAAA): 30.4 Cm; Height ([4]; 17.5 gr ai/ha, application B (10 leaf cotton, 21 days after A timing), 49DAAA): 39.2 Cm; Number (Bolls) ([4]; 17.5 gr ai/ha, application B (10 leaf cotton, 21 days after A timing)): 8.4 Bolls; Height ([4]; 35 gr ai/ha, application A (4 leaf cotton), 14DAAA): 15.5 Cm; Height ([4]; 35 gr ai/ha, application A (4 leaf cotton), 27DAAA): 20.5 Cm; Height ([4]; 35 gr ai/ha, application A (4 leaf cotton), 49DAAA): 30.1 Cm; Number (Bolls) ([4]; 35 gr ai/ha, application A (4 leaf cotton)): 2.8 Bolls; plant growth regulator effect on cotton (summary of Table 1) ([4]; greenhouse): growth regulating activity of penoxsulam on cotton growth and increase in cotton boll production; Control (SOLNI) ([2]; 35 gr ai/ha): 88.8 % Visual; Control (SOLNI) ([2]; 70 gr ai/ha): 93.8 % Visual; Reduction (height reduction, Cotton) ([3]; 35 gr ai/ha, 16DAA): 11.3 % Visual; Maturity (% open bolls, Cotton) ([3]; 35 gr ai/ha, 41DAA): 62.5 % Visual; Reduction (height reduction, Cotton) ([3]; 35 gr ai/ha, 41DAA): 10 % Visual; Reduction (height reduction, Cotton) ([3]; 70 gr ai/ha, 16DAA): 9.3 % Visual; Maturity (% open bolls, Cotton) ([3]; 70 gr ai/ha, 41DAA): 48.8 % Visual; Reduction (height reduction, Cotton) ([3]; 70 gr ai/ha, 41DAA): 5 % Visual; plant growth regulator effect on cotton (summary of Table 2) ([3]; field): growth inhibiting activity of penoxsulam, similar to the commercial product mepiquat-chloride, while increasing the maturity of cotton bolls
